Assay results published in US7064217B2 (University of Virginia Patent Foundation, priority 2001, dated 2006).
“Also recorded” adds a separate entry of the source. Like-named read-outs stand apart in the source and are kept apart here.

Experiments:
Type in all cases: biochemical
hS1P1 = biological target: T1, hS1P1 (Homo sapiens, UniProt P21453); assay: [γ-35S]GTP binding to HEK293T cell membranes, hS1P1; details: GTPγS binding; for EC50: read-out: EC50 Values (nM) for S1P Analogues at Recombinant S1P Receptors, hS1P1, HEK293
T1 construct: expressed in transfected cells; host or cells: HEK293T
T1 sequence (P21453 whole entry): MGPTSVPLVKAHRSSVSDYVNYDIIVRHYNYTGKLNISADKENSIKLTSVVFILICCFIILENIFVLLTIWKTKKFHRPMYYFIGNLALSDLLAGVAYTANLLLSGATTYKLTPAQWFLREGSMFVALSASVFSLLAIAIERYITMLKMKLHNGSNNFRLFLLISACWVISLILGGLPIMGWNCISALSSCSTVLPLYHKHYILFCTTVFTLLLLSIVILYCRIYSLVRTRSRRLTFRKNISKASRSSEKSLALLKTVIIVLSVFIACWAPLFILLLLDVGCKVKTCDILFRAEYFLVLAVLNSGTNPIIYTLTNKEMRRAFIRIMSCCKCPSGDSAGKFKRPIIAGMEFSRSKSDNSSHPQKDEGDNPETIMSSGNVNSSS
Experimental: (§1) Human or mouse S1P5 DNA was mixed with an equal amount of DNA encoding a rat Gi2R protein as well as DNAs encoding cow β1 and γ2 proteins and used to transfect monolayers of HEK293T cells using the calcium phosphate precipitate method. After 60 h, cells were harvested, and microsomes were prepared, aliquoted, and stored at −70° C. until use.
(§2) After incubating for 30 min at 30° C., bound radionuclide was separated from free by filtration through Whatman GF/C paper using a Brandel Cell Harvester (Gaithersburg, Md.).
(§3) Assay of cAMP accumulation was performed as described previously (See Im et al., J. Biol. Chem. 275, 14281–14286 (2000), the disclosure of which is incorporated herein). Assays were conducted on populations of 5×10^5 cells stimulated with 1 uM forskolin in the presence of the phosphodiesterase inhibitor […] (IBMX, 1 mM) for 15 min. cAMP was measured by automated radioimmunoassay. The GTPγS studies were performed using zebrafish S1P1 overexpressed rat RH-7777 and human hS1P1, hS1P2, hS1P3 and hS1P5 overexpressed human HEK293 cells.
(§4) An additional series of compounds was tested using the GTPγS binding assay described in Example 2 and in Im et al., J. Biol. Chem. 275, 14281–14286 (2000), the disclosure of which is incorporated herein).

zS1P1 = biological target: T2, zS1P1 (Danio rerio, UniProt Q9DDK4); assay: [γ-35S]GTP binding, zebrafish S1P1 overexpressed in rat RH-7777 cells; details: GTPγS binding, zebrafish S1P1 in rat RH-7777
T2 construct: expressed in transfected cells; host or cells: rat hepatoma RH-7777
T2 sequence (Q9DDK4 1-362): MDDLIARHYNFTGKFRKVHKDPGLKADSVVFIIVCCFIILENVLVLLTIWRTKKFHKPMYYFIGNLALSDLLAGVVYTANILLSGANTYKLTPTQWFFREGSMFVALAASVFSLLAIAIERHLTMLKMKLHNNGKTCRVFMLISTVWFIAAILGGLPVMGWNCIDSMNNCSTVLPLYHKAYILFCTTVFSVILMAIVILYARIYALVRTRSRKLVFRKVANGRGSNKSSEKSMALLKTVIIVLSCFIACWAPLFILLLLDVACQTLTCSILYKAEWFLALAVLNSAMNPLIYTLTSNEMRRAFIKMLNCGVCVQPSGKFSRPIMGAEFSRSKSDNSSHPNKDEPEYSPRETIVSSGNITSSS
Experimental: as §2
Rat hepatoma RH7777 cell monolayers were transfected with human or mouse S1P5/pCR3.1 DNA using the calcium phosphate precipitate method, and clonal populations expressing the neomycin phosphotransferase gene were selected by addition of Ge-neticin (G418) to the culture medium. The RH7777 cells were grown in monolayers at 37° C. in a 5%CO2/95% air atmosphere in growth medium consisting of 90% MEM, 10% fetal bovine serum, 2 mM glutamine, and 1 mM sodium pyruvate.
as §3

mS1P5 = biological target: T3, mS1P5 (Mus musculus, UniProt Q91X56); assay: [γ-35S]GTP binding to HEK293T cell membranes, mS1P5; details: GTPγS binding
T3 construct: expressed in transfected cells; host or cells: HEK293T
T3 sequence (Q91X56 whole entry): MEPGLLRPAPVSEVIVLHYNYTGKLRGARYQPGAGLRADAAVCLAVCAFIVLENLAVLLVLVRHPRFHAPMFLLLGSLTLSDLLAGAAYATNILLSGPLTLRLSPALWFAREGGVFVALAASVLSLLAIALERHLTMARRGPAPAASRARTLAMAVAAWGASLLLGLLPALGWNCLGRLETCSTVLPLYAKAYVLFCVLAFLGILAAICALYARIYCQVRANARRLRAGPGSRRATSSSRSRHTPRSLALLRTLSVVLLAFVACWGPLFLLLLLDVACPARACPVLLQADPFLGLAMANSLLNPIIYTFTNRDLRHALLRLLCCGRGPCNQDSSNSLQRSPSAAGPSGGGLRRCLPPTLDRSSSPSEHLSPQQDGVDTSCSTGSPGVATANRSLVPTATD
Experimental: as §1, §2, §3

hS1P3 = biological target: T4, hS1P3 (Homo sapiens, UniProt Q99500); assay: [γ-35S]GTP binding to HEK293T cell membranes, hS1P3; details: GTPγS binding; for EC50: read-out: EC50 Values (nM) for S1P Analogues at Recombinant S1P Receptors, hS1P3, HEK293; for activity at the S1P3 receptor (inverse agonism/antagonism or agonism): Example 3 series
T4 construct: expressed in transfected cells; host or cells: HEK293T
T4 sequence (Q99500 whole entry): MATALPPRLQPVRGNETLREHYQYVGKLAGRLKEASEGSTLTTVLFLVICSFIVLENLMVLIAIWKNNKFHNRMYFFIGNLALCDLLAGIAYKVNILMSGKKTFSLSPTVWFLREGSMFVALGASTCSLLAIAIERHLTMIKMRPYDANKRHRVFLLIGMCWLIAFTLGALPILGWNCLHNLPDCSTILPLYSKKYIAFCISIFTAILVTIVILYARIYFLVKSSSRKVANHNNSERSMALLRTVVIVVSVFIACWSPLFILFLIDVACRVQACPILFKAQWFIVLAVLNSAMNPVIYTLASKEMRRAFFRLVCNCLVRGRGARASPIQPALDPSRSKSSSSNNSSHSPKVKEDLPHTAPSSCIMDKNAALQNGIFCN
Experimental: as §1, §2, §3, §4

hS1P2 = biological target: T5, hS1P2 (Homo sapiens, UniProt O95136); assay: [γ-35S]GTP binding to HEK293T cell membranes, hS1P2; details: GTPγS binding; for EC50: read-out: EC50 Values (nM) for S1P Analogues at Recombinant S1P Receptors, hS1P2, HEK293; for activity at the S1P2 receptor: Example 3 series
T5 construct: expressed in transfected cells; host or cells: HEK293T
T5 sequence (O95136 whole entry): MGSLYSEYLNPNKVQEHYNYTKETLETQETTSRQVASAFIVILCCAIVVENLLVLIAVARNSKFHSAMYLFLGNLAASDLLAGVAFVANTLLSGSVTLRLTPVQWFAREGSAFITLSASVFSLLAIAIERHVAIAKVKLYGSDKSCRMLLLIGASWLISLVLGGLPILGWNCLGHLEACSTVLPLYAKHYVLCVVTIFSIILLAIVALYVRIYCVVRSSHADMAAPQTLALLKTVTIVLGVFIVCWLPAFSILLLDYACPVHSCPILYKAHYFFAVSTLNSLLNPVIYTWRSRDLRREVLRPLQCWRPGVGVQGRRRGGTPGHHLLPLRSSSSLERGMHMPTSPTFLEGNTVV
Experimental: as §1, §2, §3, §4

hS1P5 = biological target: T6, hS1P5 (Homo sapiens, UniProt Q9H228); assay: [γ-35S]GTP binding to HEK293T cell membranes, hS1P5; details: read-out: EC50 Values (nM) for S1P Analogues at Recombinant S1P Receptors, hS1P5; GTPγS binding; HEK293
T6 construct: expressed in transfected cells; host or cells: HEK293T
T6 sequence (Q9H228 whole entry): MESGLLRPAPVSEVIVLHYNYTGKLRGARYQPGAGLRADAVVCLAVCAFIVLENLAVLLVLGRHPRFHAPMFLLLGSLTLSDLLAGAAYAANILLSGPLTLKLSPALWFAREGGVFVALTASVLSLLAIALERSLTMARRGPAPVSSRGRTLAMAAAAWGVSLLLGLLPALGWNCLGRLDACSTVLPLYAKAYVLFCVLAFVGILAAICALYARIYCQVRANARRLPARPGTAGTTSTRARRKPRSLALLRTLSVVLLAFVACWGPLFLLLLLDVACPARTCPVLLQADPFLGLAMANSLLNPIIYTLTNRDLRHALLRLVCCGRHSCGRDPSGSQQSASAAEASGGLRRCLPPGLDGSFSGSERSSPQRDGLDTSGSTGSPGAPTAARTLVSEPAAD
Experimental: as §1, §2, §3, §4

S1P receptors = assay: [γ-35S]GTP binding assay, statements across the recombinant S1P receptors tested; details: GTPγS binding
Experimental: as §1, §2, §3, §4

hS1P4 = biological target: T7, hS1P4 (Homo sapiens, UniProt O95977); assay: [γ-35S]GTP binding to HEK293T cell membranes, hS1P4; details: GTPγS binding, primary alcohols
T7 construct: expressed in transfected cells; host or cells: HEK293T
T7 sequence (O95977 1-384): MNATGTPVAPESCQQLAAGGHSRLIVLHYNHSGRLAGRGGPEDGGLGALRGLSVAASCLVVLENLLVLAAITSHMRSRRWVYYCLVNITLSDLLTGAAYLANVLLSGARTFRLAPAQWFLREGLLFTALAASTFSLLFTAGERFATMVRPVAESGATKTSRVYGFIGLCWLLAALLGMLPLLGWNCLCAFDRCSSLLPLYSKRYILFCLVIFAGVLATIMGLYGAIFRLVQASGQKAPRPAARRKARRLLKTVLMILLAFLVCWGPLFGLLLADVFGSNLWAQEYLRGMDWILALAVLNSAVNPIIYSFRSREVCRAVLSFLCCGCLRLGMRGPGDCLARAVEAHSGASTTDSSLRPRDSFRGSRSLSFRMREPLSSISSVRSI
Experimental: as §2, §4

[1] = read-out: EC50 Values (nM) for S1P Analogues at Recombinant S1P Receptors, zS1P1
[2] = read-out: EC50 Values (nM) for S1P Analogues at Recombinant S1P Receptors, mS1P5

CCCCCCCCCCCCC/C=C/[C@@H](O)[C@@H](N)COP(=O)(O)O [Compound S1P, Sphingosine-1-phosphate, reference compound] was tested, and the EC50 (hS1P1) was 0.9 nM, the EC50 (zS1P1) was 54.6 nM and the EC50 (mS1P5) was 12.7 nM. The EC50 (hS1P3) was 1.1 nM.
CCCCCCCCCCCCNC(=O)[C@@H](N)COP(=O)(O)O [VPC22041] gave an EC50 (hS1P2) of 973 nM, an EC50 (hS1P5) of 646 nM and an EC50 (hS1P1) of 598 nM. The EC50 (zS1P1) was 2050 nM, the EC50 (mS1P5) was > 5000 nM and the EC50 (hS1P3) was 845 nM.
CCCCCCCCCCCCCCNC(=O)[C@@H](N)COP(=O)(O)O [VPC22051] was tested, and the EC50 (hS1P2) was 2760 nM, the EC50 (hS1P5) was > 5000 nM and the EC50 (hS1P1) was 322 nM. For the same compound, the EC50 (zS1P1; [1]) was > 5000 nM, the EC50 (mS1P5; [2]) was > 5000 nM and the EC50 (hS1P3) was 602 nM.
CCCCCCCCCCCCCCOC(=O)[C@@H](N)COP(=O)(O)O.O=C(O)C(F)(F)F [VPC22053] was tested, and the EC50 (hS1P2) was 2680 nM, the EC50 (hS1P5) was 1610 nM and the “loss of potency relative to enantiomer VPC22135 at S1P1 receptor” value (hS1P1) was “more than 1 log order”. For the same compound, the EC50 (hS1P1) was 397 nM, the EC50 (zS1P1; [1]) was > 5000 nM and the EC50 (mS1P5; [2]) was 2010 nM. The “loss of potency relative to enantiomer VPC22135 at S1P3 receptor” value (hS1P3) was “more than 1 log order” and the EC50 (hS1P3) was 862 nM.
With CCCCCCCCCCCCCCCCNC(=O)[C@@H](N)COP(=O)(O)O [VPC22063] the EC50 (hS1P5) was 1220 nM, the EC50 (hS1P1) was 1800 nM and the EC50 (zS1P1) was > 5000 nM. The EC50 (mS1P5) was 1330 nM and the EC50 (hS1P3) was 879 nM.
CCCCCCCCCCCCCCNC(=O)[C@H](N)COP(=O)(O)O [VPC22135] was tested, and the EC50 (hS1P2) was 2110 nM, the “potency relative to S1P at human S1P1 receptor” value (hS1P1) was “approached the potency of S1P” and the EC50 (hS1P1) was 12.7 nM. For the same compound, the EC50 (zS1P1) was 1620 nM, the EC50 (mS1P5) was 1820 nM and the “potency relative to S1P at human S1P3 receptor” value (hS1P3) was “approached the potency of S1P”. It also gave an EC50 (hS1P3) of 50.8 nM.
In the case of CCCCCCCCc1cccc(NC(=O)[C@H](N)COP(=O)(O)O)c1 [VPC23019], the “activity at the S1P2 receptor” value (hS1P2) is reported as “failed to show significant activity; also recorded: inactive”, the “activity at S1P1 (antagonism)” value (hS1P1; competition with S1P) is reported as “antagonism” and the “activity at the S1P3 receptor (inverse agonism/antagonism or agonism)” value (hS1P3) is reported as “inverse agonists”.
CCCCCCc1cccc(NC(=O)[C@H](N)COP(=O)(O)O)c1.O=C(O)C(F)(F)F [VPC23031] was tested, and the “activity at the S1P2 receptor” value (hS1P2) was “failed to show significant activity; also recorded: inactive” and the “activity at the S1P3 receptor (inverse agonism/antagonism or agonism)” value (hS1P3) was “inverse agonists”.
For CCCCCCCCCCc1cccc(NC(=O)[C@H](N)CO)c1.O=C(O)C(F)(F)F [VPC23065], the “activity at the S1P2 receptor” value (hS1P2) was “failed to show significant activity; also recorded: inactive”, the “agonist activity at S1P receptors” value (S1P receptors) was “significant agonist activity” and the “agonist activity at the S1P4 receptor” value (hS1P4) was “good agonist activity”.
For CCCCCCCCCCc1cccc(NC(=O)[C@H](N)COP(=O)(O)O)c1.O=C(O)C(F)(F)F [VPC23069], the “activity at the S1P2 receptor” value (hS1P2) was “failed to show significant activity; also recorded: inactive” and the “activity at the S1P3 receptor (inverse agonism/antagonism or agonism)” value (hS1P3) was “agonism”.
For CCCCCCCCCc1cccc(NC(=O)[C@H](N)CO)c1.O=C(O)C(F)(F)F [VPC23075], the “activity at the S1P2 receptor” value (hS1P2) was “failed to show significant activity; also recorded: inactive”, the “agonist activity at S1P receptors” value (S1P receptors) was “significant agonist activity” and the “agonist activity at the S1P4 receptor” value (hS1P4) was “good agonist activity”.
With CCCCCCCCCc1cccc(NC(=O)[C@H](N)COP(=O)(O)O)c1.O=C(O)C(F)(F)F [VPC23079] the “activity at the S1P2 receptor” value (hS1P2) was “failed to show significant activity; also recorded: inactive” and the “activity at the S1P3 receptor (inverse agonism/antagonism or agonism)” value (hS1P3) was “agonism”.
In the case of CCCCCCCCc1ccccc1NC(=O)[C@H](N)CO.O=C(O)C(F)(F)F [VPC23087], the “activity at the S1P2 receptor” value (hS1P2) is reported as “failed to show significant activity; also recorded: inactive”, the “agonist activity at S1P receptors” value (S1P receptors) is reported as “significant agonist activity” and the “agonist activity at the S1P4 receptor” value (hS1P4) is reported as “good agonist activity”.
With CCCCCCCCc1ccccc1NC(=O)[C@H](N)COP(=O)(O)O [VPC23089] the “activity at the S1P2 receptor” value (hS1P2) was “failed to show significant activity; also recorded: inactive” and the “activity at the S1P3 receptor (inverse agonism/antagonism or agonism)” value (hS1P3) was “inverse agonists”.
